Laboratory results reported in patent US10251392B2, “Antimicrobial devices and compositions” (Avent, Inc., priority 2004, dated 2019).

Assay: Light stability (discoloration by light exposure)
Format: physicochemical
Settings: ambient / room light
Experimental: The term “light stable” in the present context is meant to indicate either of two conditions; (i) no visible change in the color of the compositions of patient and wound care products after 24 hour exposure to light conditions typically encountered indoors in hospital, offices, or home that are normally used to aid visibility.

[Ag+].c1ccc2[n-]cnc2c1 [silver benzimidazole complex]
light sensitivity of the solid powder: remained unchanged
